Measured values taken from patent publication US8859529B2, “Compounds for the treatment of inflammatory disorders” (Merck Sharp & Dohme Corp., priority 2008, dated 2014).

Key:
[1] = tested on: TNF-α production from human whole blood; experiment: Inhibition of TNF-α production from human whole blood (hWBA); format: cell-based; settings: human whole blood diluted 1:1, 1 h pre-incubation, LPS, 3.5 h, TNF-α by ELISA; N/A = Not Active
Procedure: The compounds' ability to inhibit TACE activity can also be determined in human whole blood using the assay conditions described n Example 15 below.
Human whole blood was diluted 1:1 with serum free medium (RPMI, L-glutamine, Pen-Strep, HEPES) and incubated with a test compound in a final volume of 360 μl for 1 h at 37° C. Forty microliters of LPS (10 μg/mL) was then added. Supernatant was collected after 3.5 h incubation and the concentration of TNF-α was determined by ELISA (R&D Systems). The concentration of the test compound which inhibits 50% of the amount of TNF-α from the untreated control was determined.

[2] = Area under the curve determinations of plasma levels in rats (rrAUC); format: in vivo; settings: rapid rat AUC of the drug (parent) in plasma; oral 10 mg/kg, fasted rats, blood 0.5-6 h post-dosing
Procedure: To gain insight into the pharmacokinetic properties of the compounds of formula (I), plasma levels of the compounds in rats were determined according to the protocol described in Korfmacher, W. A,; Cox, K. A.; Ng, K. J.; Veals, J.; Hsieh, Y.; Wainhaus, S.; Broske, L; Prelusky, D.; Nomeir, A.; White, R. E. Rapid Commun. Mass Spectrorn, 2001, 15, 335. Briefly, rats, after an overnight fast, were dosed orally with the test compound at a dose of 10 mg/kg in a 5 mL/kg dose volume. Blood was collected at 0.5, 1, 2, 3, 4, and 6 h post-dosing. Mass spectrometry using high performance liquid chromatography was used to identify and measure the concentrations of the test compounds in the plasma at the various time points. The parent ion of each test compound was used to identify and quantitate the compounds in plasma.

CCOC(=O)[C@H](C)OC(=O)OCN1C(=O)N[C@@](CN2Cc3ccc(OC)cc3C2=O)(c2cc3cnccc3o2)C1=O [Compound 63.2]
IC50 [1]: 738 nM
PK (rrAUC) parent [2]: 0 nM·h

COc1ccc2c(c1F)C(=O)N(C[C@@]1(c3cc4cnc(C)cc4o3)NC(=O)N(COC(=O)C(C)(C)C)C1=O)C2 [Compound 12]
IC50 [1]: 187 nM
PK (rrAUC) parent [2]: 45,213 nM · h

COc1ccc2c(c1)C(=O)N(C[C@@]1(c3cc4nc(Nc5cccnc5)ccc4o3)NC(=O)N(COC(=O)C(C)(C)C)C1=O)C2 [Compound 34]
IC50 [1]: 1330 nM
PK (rrAUC) parent [2]: 94 nM·h

COc1ccc2c(c1)C(=O)N(C[C@@]1(c3cc4cnccc4o3)NC(=O)N(COC(=O)OC3CCOCC3)C1=O)C2 [Compound 59]
IC50 [1]: 184 nM
PK (rrAUC) parent [2]: 13539 nM·h

COc1ccc2c(c1)C(=O)N(C[C@@]1(c3cc4cc(-c5cc(=O)[nH]c(N)n5)cnc4o3)NC(=O)N(COC(=O)C(C)(C)C)C1=O)C2 [Compound 33]
IC50 [1]: 375 nM
PK (rrAUC) parent [2]: 0 nM·h

COc1ccc2c(c1F)C(=O)N(C[C@@]1(c3cc4nc(-c5cn[nH]c5)ccc4o3)NC(=O)N(COC(=O)C(C)(C)C)C1=O)C2 [Compound 16]
IC50 [1]: 141 nM
PK (rrAUC) parent [2]: 249 nM·h

COc1ccc2c(c1)C(=O)N(C[C@@]1(C#Cc3ccc(-c4nc(-c5cnn(C)c5)ccc4OC(=O)C(C)(C)C)cc3)NC(=O)N(COC(=O)C(C)(C)C)C1=O)C2 [Compound 43]
IC50 [1]: 336 nM
PK (rrAUC) parent [2]: 0 nM·h

COc1ccc2c(c1)C(=O)N(C[C@@]1(c3cc4nc(NS(C)(=O)=O)ccc4o3)NC(=O)N(COC(=O)C(C)(C)C)C1=O)C2 [Compound 26]
IC50 [1]: 645 nM
PK (rrAUC) parent [2]: 0 nM·h

COc1ccc2c(c1)C(=O)N(C[C@@]1(c3cc4cnccc4o3)NC(=O)N(COC(=O)OCC3COCO3)C1=O)C2 (some centres unmarked) [Compound 63.1]
IC50 [1]: 449 nM
PK (rrAUC) parent [2]: 0 nM·h

COc1ccc2c(c1F)C(=O)N(C[C@@]1(c3cc4c(OC(C)=O)nccc4o3)NC(=O)N(COC(=O)C(C)(C)C)C1=O)C2 [Compound 22]
IC50 [1]: 2820 nM
PK (rrAUC) parent [2]: 823 nM·h

COc1ccc2c(c1F)C(=O)N(C[C@@]1(c3cc4cc5c(c(F)c4o3)C(=O)NC5)NC(=O)N(COC(=O)c3ccccc3)C1=O)C2 [Compound 64]
IC50 [1]: 169 nM
PK (rrAUC) parent [2]: 5393 nM·h

COc1ccc2c(c1F)C(=O)N(C[C@@]1(C#Cc3cncc(NC(=O)C4CCN(C)CC4)c3)NC(=O)N(COC(=O)C(C)(C)C)C1=O)C2 [Compound 36]
IC50 [1]: 171 nM
PK (rrAUC) parent [2]: 0 nM·h

COc1ccc2c(c1)C(=O)N(C[C@@]1(C#Cc3ccc4c(=O)[nH][nH]c4c3)NC(=O)N(COC(=O)C(C)(C)C)C1=O)C2 [Compound 13]
IC50 [1]: 213 nM
PK (rrAUC) parent [2]: 0 nM·h

CCN1CCN(c2ccc3oc([C@]4(CN5Cc6ccc(OC)cc6C5=O)NC(=O)N(COC(=O)C(C)(C)C)C4=O)cc3n2)CC1 [Compound 24]
IC50 [1]: 176 nM
PK (rrAUC) parent [2]: 655 nM·h

COc1ccc2c(c1F)C(=O)N(C[C@@]1(c3cc4cc(-c5cc(=O)[nH]c(N)n5)ccc4o3)NC(=O)N(COC(=O)C(C)(C)C)C1=O)C2 [Compound 29]
IC50 [1]: 199 nM
PK (rrAUC) parent [2]: 0 nM·h

COc1ccc2c(c1)C(=O)N(C[C@@]1(c3cc4cnccc4o3)NC(=O)N(C(C)OC(=O)OC3CCOCC3)C1=O)C2 (some centres unmarked) [Compound 61]
IC50 [1]: 685 nM
PK (rrAUC) parent [2]: 0 nM·h

COc1ccc2c(c1F)C(=O)N(C[C@@]1(c3cc4nc(N5C[C@H](O)CC5=O)ccc4o3)NC(=O)N(COC(=O)C(C)(C)C)C1=O)C2 [Compound 37]
IC50 [1]: 148 nM
PK (rrAUC) parent [2]: 0 nM·h

COc1ccc2c(c1)C(=O)N(C[C@@]1(c3cc4cnccc4o3)NC(=O)N(COC(=O)C(C)(C)C)C1=O)C2 [Compound 2]
IC50 [1]: 273 nM
PK (rrAUC) parent [2]: 13539 nM·h

COc1ccc2c(c1F)C(=O)N(C[C@@]1(c3cc4nc(N5CCC5=O)ccc4o3)NC(=O)N(COC(=O)C(C)(C)C)C1=O)C2 [Compound 6]
IC50 [1]: 447 nM
PK (rrAUC) parent [2]: 2283 nM·h

COc1ccc2c(c1)C(=O)N(C[C@@]1(c3cc4ncccc4o3)NC(=O)N(C(C)C)C1=O)C2 [Compound 51]
IC50 [1]: 7150 nM
PK (rrAUC) parent [2]: 370 nM·h

COc1ccc2c(c1)C(=O)N(C[C@@]1(c3cc4cnccc4o3)NC(=O)N(COC(=O)OC3CCN(C)CC3)C1=O)C2 [Compound 63.3]
IC50 [1]: 1400 nM
PK (rrAUC) parent [2]: 13539 nM·h

COc1ccc2c(c1F)C(=O)N(C[C@@]1(c3cc4nc(N5CCNC(=O)C5)ccc4o3)NC(=O)N(COC(=O)C(C)(C)C)C1=O)C2 [Compound 5]
IC50 [1]: 104 nM
PK (rrAUC) parent [2]: 121 nM·h

COc1ccc2c(c1)C(=O)N(C[C@@]1(c3cc4nc(-c5c(C)nn(C)c5C)ccc4o3)NC(=O)N(COC(=O)C(C)(C)C)C1=O)C2 [Compound 17]
IC50 [1]: 626 nM
PK (rrAUC) parent [2]: 2005 nM·h

COc1ccc2c(c1F)C(=O)N(C[C@@]1(C#Cc3ccc(-c4nc(-c5cnn(C)c5)ccc4OC(=O)C(C)(C)C)c(F)c3)NC(=O)N(COC(=O)C(C)(C)C)C1=O)C2 [Compound 44]
IC50 [1]: 281 nM
PK (rrAUC) parent [2]: 0 nM·h

COc1ccc2c(c1F)C(=O)N(C[C@@]1(c3cc4c(C)nccc4o3)NC(=O)N(COC(=O)C(C)(C)C)C1=O)C2 [Compound 11]
IC50 [1]: 235 nM
PK (rrAUC) parent [2]: 1827 nM·h

COc1ccc2c(c1)C(=O)N(C[C@]1(c3cc4cnccc4o3)C(=O)N(COC(=O)OCC3COCO3)C(=O)N1C(=O)OCC1COCO1)C2 (some centres unmarked) [Compound 86]
IC50 [1]: 5410 nM
PK (rrAUC) parent [2]: 56 nM·h

COc1ccc2c(c1F)C(=O)N(C[C@@]1(C#Cc3ccc4c(=O)[nH][nH]c4c3)NC(=O)N(COC(=O)C(C)(C)C)C1=O)C2 [Compound 14]
IC50 [1]: 275 nM
PK (rrAUC) parent [2]: 0 nM·h

COc1ccc2c(c1)C(=O)N(C[C@@]1(c3cc4nc(N5C[C@H](O)CC5=O)ccc4o3)NC(=O)N(COC(=O)C(C)(C)C)C1=O)C2 [Compound 31]
IC50 [1]: 224 nM
PK (rrAUC) parent [2]: 334 nM·h

COc1ccc2c(c1F)C(=O)N(C[C@@]1(c3cc4nc(N5C[C@@H](O)CC5=O)ccc4o3)NC(=O)N(COC(=O)C(C)(C)C)C1=O)C2 [Compound 38]
IC50 [1]: 94 nM
PK (rrAUC) parent [2]: 1736 nM·h

COc1ccc2c(c1)C(=O)N(C[C@@]1(c3cc4ncccc4o3)NC(=O)N(COC(=O)C(C)(C)C)C1=O)C2 [Compound 1]
IC50 [1]: 281 nM
PK (rrAUC) parent [2]: 13101 nM·h

COc1ccc2c(c1)C(=O)N(C[C@@]1(c3cc4cnccc4o3)NC(=O)N(COC(=O)c3cccnc3)C1=O)C2 [Compound 67]
IC50 [1]: 504 nM
PK (rrAUC) parent [2]: 3448 nM·h

CCOc1ccc2c(c1F)C(=O)N(C[C@@]1(c3cc4nc(N5CCN(CC)CC5)ccc4o3)NC(=O)N(COC(=O)C(C)(C)C)C1=O)C2 [Compound 39]
IC50 [1]: 241 nM
PK (rrAUC) parent [2]: 927 nM·h

COc1ccc2c(c1)C(=O)N(C[C@@]1(C#Cc3ccc(C(N)=O)cc3)NC(=O)N(COC(=O)C(C)(C)C)C1=O)C2 [Compound 15]
IC50 [1]: 188 nM
PK (rrAUC) parent [2]: 0 nM·h

COc1ccc2c(c1)C(=O)N(C[C@@]1(c3cc4nc(N5CC[C@@H](O)C5)ccc4o3)NC(=O)N(COC(=O)C(C)(C)C)C1=O)C2 [Compound 21]
IC50 [1]: 339 nM
PK (rrAUC) parent [2]: 2684 nM·h
